# Laboratory results from patent US20250129078A1, “ERBB2 INHIBITORS” (Cogent Biosciences, Inc., priority 2023, published 2025).
# Structures can show the parent of a compound that is named as a salt.
# Molecular target: EGFR WT (Homo sapiens (Human), UniProt P00533)
# Experiment: ErbB enzyme assay (CisBio HTRF-KinEASE-TK), EGFR WT
# Assay type: biochemical
# Details: ATP at Km (25 μM), 1 h incubation
# Method in brief: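 Three-fold DMSO serial dilutions were added to kinase reactions and incubated 1 h at room temperature. Quench used 62.5 nM Sa-XL665 plus 0.25×TK-Ab-Cryptate in detection buffer, followed by another 1 h. Substrate phosphorylation was then measured by dual-wavelength HTRF.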
# Chain of EGFR WT (P00533 25-1210): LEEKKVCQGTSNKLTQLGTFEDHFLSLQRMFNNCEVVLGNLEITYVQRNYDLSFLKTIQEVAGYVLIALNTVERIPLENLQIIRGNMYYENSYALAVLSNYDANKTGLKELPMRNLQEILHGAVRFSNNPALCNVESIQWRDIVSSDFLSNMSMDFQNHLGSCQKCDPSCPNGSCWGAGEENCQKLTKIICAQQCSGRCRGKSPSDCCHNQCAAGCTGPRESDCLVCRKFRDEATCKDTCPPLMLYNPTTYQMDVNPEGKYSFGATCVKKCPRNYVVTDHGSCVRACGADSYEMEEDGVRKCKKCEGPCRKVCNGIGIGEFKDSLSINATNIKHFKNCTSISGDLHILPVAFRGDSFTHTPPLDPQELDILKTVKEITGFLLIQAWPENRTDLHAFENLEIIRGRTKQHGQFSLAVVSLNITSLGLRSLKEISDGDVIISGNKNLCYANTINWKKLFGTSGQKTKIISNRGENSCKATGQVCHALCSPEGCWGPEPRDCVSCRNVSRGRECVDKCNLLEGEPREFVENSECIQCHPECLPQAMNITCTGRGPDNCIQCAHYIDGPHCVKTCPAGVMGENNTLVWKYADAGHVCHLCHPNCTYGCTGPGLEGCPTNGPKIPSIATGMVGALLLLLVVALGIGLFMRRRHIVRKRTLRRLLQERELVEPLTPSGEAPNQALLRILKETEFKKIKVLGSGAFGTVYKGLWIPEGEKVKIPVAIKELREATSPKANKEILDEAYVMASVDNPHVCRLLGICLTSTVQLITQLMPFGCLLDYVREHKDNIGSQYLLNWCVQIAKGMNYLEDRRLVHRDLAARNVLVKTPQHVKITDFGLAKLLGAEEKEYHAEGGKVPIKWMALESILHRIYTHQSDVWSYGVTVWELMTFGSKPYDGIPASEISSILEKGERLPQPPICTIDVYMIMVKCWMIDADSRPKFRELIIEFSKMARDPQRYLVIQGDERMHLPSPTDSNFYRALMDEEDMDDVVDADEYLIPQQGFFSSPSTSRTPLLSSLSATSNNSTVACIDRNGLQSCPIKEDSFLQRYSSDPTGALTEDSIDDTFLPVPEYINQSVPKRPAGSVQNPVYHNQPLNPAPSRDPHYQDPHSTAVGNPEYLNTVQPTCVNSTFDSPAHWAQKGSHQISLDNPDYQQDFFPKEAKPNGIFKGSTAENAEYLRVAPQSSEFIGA
row,Structure (SMILES),IC50
1,"Cc1cc(Nc2ncnc3ccc(N4CCN(C(=O)/C=C/CF)[C@H](C)C4)nc23)ccc1Oc1ccc2c(c1)nnn2C [Compound 364, (R,E)-4-fluoro-1-(2-methyl-4-(4-((3-methyl-4-((1-methyl-1H-benzo[d][1,2,3]triazol-5-yl)oxy)phenyl)amino)pyrido[3,2-d]pyrimidin-6-yl)piperazin-1-yl)but-2-en-1-one]",100 to 500 nM
2,"C=C(F)C(=O)N1CC[C@H](N(C)c2ccc3ncnc(Nc4ccc(Oc5ccc6c(c5)nnn6C)c(C)c4F)c3n2)C1 [Compound 365, (S)-2-fluoro-1-(3-((4-((2-fluoro-3-methyl-4-((1-methyl-1H-benzo[d][1,2,3]triazol-5-yl)oxy)phenyl)amino)pyrido[3,2-d]pyrimidin-6-yl)(methyl)amino)pyrrolidin-1-yl)prop-2-en-1-one]",≥ 1000 nM
3,"Cc1cc(Nc2ncnc3ccc(N4CC[C@@H](C)N(C(=O)/C=C/C(F)F)CC4)nc23)ccc1Oc1ccn2ncnc2c1 [Compound 367, (R,E)-1-(4-(4-((4-([1,2,4]triazolo[1,5-a]pyridin-7-yloxy)-3-methylphenyl)amino)pyrido[3,2-d]pyrimidin-6-yl)-7-methyl-1,4-diazepan-1-y1)-4,4-difluorobut-2-en-1-one]",500 to 1000 nM
4,"Cc1cc(Nc2ncnc3ccc(N4CCN(C(=O)/C=C/C(F)F)[C@H](C)C4)nc23)ccc1Oc1ccc2c(c1)nnn2C [Compound 368, (R,E)-4,4-difluoro-1-(2-methyl-4-(4-((3-methyl-4-((1-methyl-1H-benzo[d][1,2,3]triazol-5-yl)oxy)phenyl)amino)pyrido[3,2-d]pyrimidin-6-yl)piperazin-1-yl)but-2-en-1-one]",50 to 100 nM
5,"Cc1cc(Nc2ncnc3ccc(N4CCN(C(=O)/C=C/C(F)F)[C@@H](C)C4)nc23)ccc1Oc1ccc2c(c1)nnn2C [Compound 369, (S,E)-4,4-difluoro-1-(2-methyl-4-(4-((3-methyl-4-((1-methyl-1H-benzo[d][1,2,3]triazol-5-yl)oxy)phenyl)amino)pyrido[3,2-d]pyrimidin-6-yl)piperazin-1-yl)but-2-en-1-one]",100 to 500 nM
6,"C=CC(=O)N1CCN(c2ccc3ncnc(Nc4cc(C)c(Oc5ccn6ncnc6c5)cc4OC)c3n2)CC1 [Compound 371, 1-(4-(4-((4-([1,2,4]triazolo[1,5-a]pyridin-7-yloxy)-2-methoxy-5-methylphenyl)amino)pyrido[3,2-d]pyrimidin-6-yl)piperazin-1-yl)prop-2-en-1-one]",50 to 100 nM
7,"C=CC(=O)N1CCN(c2ccc3ncnc(Nc4cc(C)c(Oc5cc(F)c6c(c5)ncn6C)cc4OC)c3n2)CC1 [Compound 372, 1-(4-(4-((4-((7-fluoro-1-methyl-1H-benzo[d]imidazol-5-yl)oxy)-2-methoxy-5-methylphenyl)amino)pyrido[3,2-d]pyrimidin-6-yl)piperazin-1-yl)prop-2-en-1-one]",100 to 500 nM
8,"C=CC(=O)N1CCN(c2nc3c(Nc4ccc(Oc5ccc6c(c5)nnn6C)c(C)c4)ncnc3cc2F)CC1 [Compound 373, 1-(4-(7-fluoro-4-((3-methyl-4-((1-methyl-1H-benzo[d][1,2,3]triazol-5-yl)oxy)phenyl)amino)pyrido[3,2-d]pyrimidin-6-yl)piperazin-1-yl)prop-2-en-1-one]",100 to 500 nM
9,"C=CC(=O)N1CCN(c2ccc3ncnc(Nc4ccc(Oc5ccc6c(c5)ncn6C(F)F)c(C)c4F)c3c2)CC1 [Compound 375, 1-(4-(4-((4-((1-(difluoromethyl)-1H-benzo[d]imidazol-5-yl)oxy)-2-fluoro-3-methylphenyl)amino)quinazolin-6-yl)piperazin-1-yl)prop-2-en-1-one]",50 to 100 nM
10,"C=CC(=O)N1CCC(Oc2ncc3ncnc(Nc4ccc(Oc5ccn6ncnc6c5)c(C)c4)c3n2)CC1 [Compound 376, 1-(4-((8-((4-([1,2,4]triazolo[1,5-a]pyridin-7-yloxy)-3-methylphenyl)amino)pyrimido[5,4-d]pyrimidin-2-yl)oxy)piperidin-1-yl)prop-2-en-1-one]",100 to 500 nM
11,"C=CC(=O)N1CCC(Oc2ncc3ncnc(Nc4ccc(Oc5ccc6c(c5)ncn6C)c(C)c4)c3n2)CC1 [Compound 378, 1-(4-((8-((3-methyl-4-((1-methyl-1H-benzo[d]imidazol-5-yl)oxy)phenyl)amino)pyrimido[5,4-d]pyrimidin-2-yl)oxy)piperidin-1-yl)prop-2-en-1-one]",50 to 100 nM
12,"C=CC(=O)N1CCC(Oc2ncc3ncnc(Nc4ccc(Oc5ccc6c(c5)ncn6C)c(OC)c4)c3n2)CC1 [Compound 379, 1-(4-((8-((3-methoxy-4-((1-methyl-1H-benzo[d]imidazol-5-yl)oxy)phenyl)amino)pyrimido[5,4-d]pyrimidin-2-yl)oxy)piperidin-1-yl)prop-2-en-1-one]",100 to 500 nM
13,"C=CC(=O)N1CC[C@@H](Oc2ncc3ncnc(Nc4ccc(Oc5cc(F)c6c(c5)ncn6C)c(C)c4)c3n2)C1 [Compound 385, (R)-1-(3-((8-((4-((7-fluoro-1-methyl-1H-benzo[d]imidazol-5-yl)oxy)-3-methylphenyl)amino)pyrimido[5,4-d]pyrimidin-2-yl)oxy)pyrrolidin-1-yl)prop-2-en-1-one]",100 to 500 nM
14,"C=CC(=O)N1C(C)(C)CC(c2ccc3ncnc(Nc4ccc(Oc5ccc6c(c5)nnn6C)c(C)c4)c3n2)CC1(C)C [Compound 399, 1-(2,2,6,6-tetramethyl-4-(4-((3-methyl-4-((1-methyl-1H-benzo[d][1,2,3]triazol-5-yl)oxy)phenyl)amino)pyrido[3,2-d]pyrimidin-6-yl)piperidin-1-yl)prop-2-en-1-one]",≥ 1000 nM
15,"C=C(F)C(=O)N1CC=C(c2ccc3ncnc(Nc4ccc(Oc5ccc6c(c5)nnn6C)c(C)c4)c3n2)C1 [Compound 403, 2-fluoro-1-(3-(4-((3-methyl-4-((1-methyl-1H-benzo[d][1,2,3]triazol-5-yl)oxy)phenyl)amino)pyrido[3,2-d]pyrimidin-6-yl)-2,5-dihydro-1H-pyrrol-1-yl)prop-2-en-1-one]",50 to 100 nM
16,"C=C(F)C(=O)N1C2C=C(c3ccc4ncnc(Nc5ccc(Oc6ccc7c(c6)nnn7C)c(C)c5)c4n3)CC1CCC2 (centres unmarked) [Compound 406, 2-fluoro-1-(3-(4-((3-methyl-4-((1-methyl-1H-benzo[d][1,2,3]triazol-5-yl)oxy)phenyl)amino)pyrido[3,2-d]pyrimidin-6-yl)-9-azabicyclo[3.3.1]non-2-en-9-yl)prop-2-en-1-one trifluoroacetate]",≥ 1000 nM

# Other lines, results leading:
row,IC50,Structure (SMILES)
1,50 to 100 nM,"COC[C@@H]1CN(c2ccc3ncnc(Nc4ccc(Oc5ccc6c(c5)nnn6C)c(C)c4F)c3n2)CCN1C(=O)/C=C/CF [Compound 361, (S,E)-4-fluoro-1-(4-(4-((2-fluoro-3-methyl-4-((1-methyl-1H-benzo[d][1,2,3]triazol-5-yl)oxy)phenyl)amino)pyrido[3,2-d]pyrimidin-6-yl)-2-(methoxymethyl)piperazin-1-yl)but-2-en-1-one]"
2,50 to 100 nM,"COC[C@@H]1CN(c2ccc3ncnc(Nc4ccc(Oc5ccc6c(c5)nnn6C)c(C)c4)c3n2)CCN1C(=O)/C=C/CF [Compound 363, (S,E)-4-fluoro-1-(2-(methoxymethyl)-4-(4-((3-methyl-4-((1-methyl-1H-benzo[d][1,2,3]triazol-5-yl)oxy)phenyl)amino)pyrido[3,2-d]pyrimidin-6-yl)piperazin-1-yl)but-2-en-1-one]"
3,< 50 nM,"C=CC(=O)N1CCC(Oc2ncc3ncnc(Nc4ccc(Oc5ccc6c(c5)ncn6C(F)F)c(C)c4)c3n2)CC1 [Compound 380, 1-(4-((8-((4-((1-(difluoromethyl)-1H-benzo[d]imidazol-5-yl)oxy)-3-methylphenyl)amino)pyrimido[5,4-d]pyrimidin-2-y1)oxy)piperidin-1-yl)prop-2-en-1-one]"
4,< 50 nM,"C=CC(=O)N1CCC(Oc2ncc3ncnc(Nc4ccc(Oc5cc(F)c6c(c5)ncn6C)c(C)c4)c3n2)CC1 [Compound 381, 1-(4-((8-((4-((7-fluoro-1-methyl-1H-benzo[d]imidazol-5-yl)oxy)-3-methylphenyl)amino)pyrimido[5,4-d]pyrimidin-2-yl)oxy)piperidin-1-yl)prop-2-en-1-one]"
5,< 50 nM,"C=CC(=O)N1CC(Oc2ncc3ncnc(Nc4ccc(Oc5ccc6c(c5)ncn6C)c(C)c4)c3n2)C1 [Compound 383, 1-(3-((8-((3-methyl-4-((1-methyl-1H-benzo[d]imidazol-5-yl)oxy)phenyl)amino)pyrimido[5,4-d]pyrimidin-2-yl)oxy)azetidin-1-yl)prop-2-en-1-one]"
6,< 50 nM,"C=CC(=O)N1CC(Oc2ncc3ncnc(Nc4ccc(Oc5cc(F)c6c(c5)ncn6C)c(C)c4)c3n2)C1 [Compound 388, 1-(3-((8-((4-((7-fluoro-1-methyl-1H-benzo[d]imidazol-5-yl)oxy)-3-methylphenyl)amino)pyrimido[5,4-d]pyrimidin-2-yl)oxy)azetidin-1-yl)prop-2-en-1-one]"
7,< 50 nM,"C=CC(=O)N1CC[C@H](Oc2ncc3ncnc(Nc4ccc(Oc5cc(F)c6c(c5)ncn6C)c(C)c4)c3n2)C1 [Compound 389, (S)-1-(3-((8-((4-((7-fluoro-1-methyl-1H-benzo[d]imidazol-5-yl)oxy)-3-methylphenyl)amino)pyrimido[5,4-d]pyrimidin-2-yl)oxy)pyrrolidin-1-yl)prop-2-en-1-one]"
8,< 50 nM,"C=CC(=O)N1CCC(Oc2ncc3ncnc(Nc4ccc(Oc5ccc6c(c5)nnn6C)c(C)c4)c3n2)CC1 [Compound 390, 1-(4-((8-((3-methyl-4-((1-methyl-1H-benzo[d][1,2,3]triazol-5-yl)oxy)phenyl)amino)pyrimido[5,4-d]pyrimidin-2-yl)oxy)piperidin-1-yl)prop-2-en-1-one]"
9,< 50 nM,"C=CC(=O)N1CCC(Oc2ncc3ncnc(Nc4ccc(Oc5ccc6c(c5)ncn6C)c(C)c4)c3n2)C(F)(F)C1 (centres unmarked) [Compound 393, 1-(3,3-difluoro-4-((8-((3-methyl-4-((1-methyl-1H-benzo[d]imidazol-5-yl)oxy)phenyl)amino)pyrimido[5,4-d]pyrimidin-2-y1)oxy)piperidin-1-yl)prop-2-en-1-one]"
10,< 50 nM,"C=CC(=O)N1CCC(Oc2nc3c(Nc4ccc(Oc5ccc6c(c5)ncn6C)c(C)c4F)ncnc3cc2OC)CC1 [Compound 394, 1-(4-((4-((2-fluoro-3-methyl-4-((1-methyl-1H-benzo[1d]imidazol-5-yl)oxy)phenyl)amino)-7-methoxypyrido[3,2-d]pyrimidin-6-yl)oxy)piperidin-1-yl)prop-2-en-1-one]"
